From patent US9980982B2, “HE4 based therapy for malignant disease” (Women & Infants Hospital of Rhode Island, priority 2011, dated 2018)
Entries after “also recorded” stand apart in the source; their conditions may differ.

How the values were obtained:
SKOV-3 cells = experiment: MTS cell viability assay, parental/wild-type SKOV-3 cells; assay type: cell-based, Human; details: 24 h; paclitaxel 6.25, 12.5 or 25 nM; cisplatin 40 or 80 μM
Protocol: (§1) Cell growth and viability of cell lines (complete medium, 24 h incubation) was determined by the CellTiter 96® AQueous One Solution Assay (Promega Corp, Madison, Wis.) following the manufacturer's recommendations with modifications (Lange T S et al., 2008 PLOS One, 3(5):e2303). Experiments are expressed as the mean of triplicate determinations (X±SD) of a representative experiment in OD (cell growth) or % of absorbance by drug-treated versus untreated cells [=100%] (cell viability). Cisplatin (CDDP), paclitaxel, doxorubicin and camptothecin (CPT) were purchased from (Sigma Aldrich, St. Louis, Mo.).
(§2) To analyze the potential biological relevance of elevated HE4 production for ovarian cancer cells the efficacy of commonly used anticancer drugs was examined in a viability assay (FIG. 5). SKOV-3 clones or parental cells were treated with cisplatin, paclitaxel, doxorubicin, or camptothecin for 24 h in various concentrations as indicated and the cytotoxicity evaluated.

[1] = system: HE4 overexpressing SKOV-3 clones HE4C1, -C3, -C7; experiment: MTS cell viability assay, HE4 overexpressing SKOV-3 clones; assay type: cell-based, Human; details: for response of HE4 overexpressing SKOV-3 clones to drug treatment (viability, words): 24 h, clones HE4C1, -C3, -C7, compared to parental SKOV-3
Protocol: An HE4 overexpressing vector for stable expression was engineered by inserting a coding sequence of human WAP four-disulfide core domain 2 (WFDC2) cDNA into a multiple cloning site of an eukaryotic expression vector, pCMV6-entry (Origene, Rockville, Md.). Transfection of the constructs in SKOV-3 cells was performed using Lipofectamine 2000 (Invitrogen, Carlsbad, Calif.) according to the manufacturer's instructions. Stably transfected cells were selected by resistance to G-418 (500 μg/ml) (Research Products International, Mount Prospect, Ill.), applied 48 h after transfection and continued during cell culture. G-418 resistant cells were resuspended (density 5 cells/ml) in complete medium/G-418 and seeded as 200 μl/well on a 96 well cell culture plate (Corning, New York, N.Y.). Cells growing from single colonies (cloned; stable transfection) were isolated.
as §1, §2

HE4 [2] = experiment: HE4 levels in SKOV-3 cell lysates and media by sandwich ELISA; assay type: cell-based, Human; details: cytotoxic agents, 24 hrs, serum free DMEM; versus untreated controls
Protocol: Various agents were examined by RT-PCR or by a sandwich ELISA. […] HE4 levels in cell lysates and media were evaluated by a sandwich ELISA.
Cells were grown for 24 h in 100 mm cell culture dishes (Corning, New York, N.Y.), supernatant collected and lysates of washed and scraped cells prepared as described previously (Lange T S et al., 2007Chem Biol Drug Design, 70:302-10). Total protein of lysates was quantitated (BioRad protein estimation kit, Hercules, Calif.), and HE4 levels were determined using the HE4 EIA assay (Fujirebio Diagnostics, Malvern, Pa.), a solid-phase, non-competitive immunoassay using two mouse monoclonal antibodies, directed against two epitopes in the C-WFDC domain. Calibration curves were used to measure HE4 concentrations in both cell lysates and culture media allowing for the calculation of production and secretion of HE4 in pmol/g total cellular protein.
FIG. 15 is a bar chart showing that treatment with growth factors and cytokines affect the HE4 levels in ovarian cancer cells. SKOV-3 cells (1 million each) were seeded in 100 mm dishes and incubated overnight. The cells were treated with an array of factors (IL-6, Insulin, TNFa, EGF) and incubated for another 6 hours. The media was collected and cells were lysed using the cell lysis buffer. The HE4 content in the media or in the cell-lysate was examined by a HE4 sandwich ELISA kit.

[3] = system: HE4 overexpressing clone-1 xenograft; experiment: Cisplatin response and Kaplan-Meier analysis of animals xenografted with HE4 overexpressing clones; assay type: in vivo, nude mice; details: cisplatin treated, within 14 days
Protocol: To ascertain the role of HE4 in the progression of ovarian cancer, the xenografts of stable HE4 overexpressing (pCMV6-HE4) clones, SKOV-3 (wild type) and the null vector clones (pCMV6) cells were raised in nude mice (strain 088, Nu/Nu). The tumor size was measured weekly.
The survival rate, tumor size, and the cisplatin or vehicle treatment response of animals xenografted with HE4 overexpressing clone-1, parental SKOV-3, and null vector clones was determined. […] Therefore, HE4 overexpression imparted chemoresistance against cisplatin treatment in animals.

HE4 [4] = experiment: HE4 secretion levels in xenografted animals by EIA ELISA; assay type: in vivo, nude mice; details: cisplatin 5 mg/kg bwt
Protocol: Because HE4 is a secretory protein, the secretion levels of HE4 were measured in animals by an EIA ELISA (Fujirebio Inc).

PI-3K = experiment: In vitro immunoprecipitation lipid kinase (PIP-3) assay; assay type: cell-based, Human; details: HE4 overexpressing clones, Cisplatin treatment
Protocol: FIG. 18 is a series of photographs and a schematic illustrating that HE4 regulates EGFR/PI-3K signaling in ovarian cancer cells. […] (C) Mechanistic model of HE4 overexpression induced chemoresistance against Cisplatin via activation of EGFR and PI-3K and its signaling product PIP-3.
HE4 over-expression causes deactivation of pro-survival mitochondrial proteins in SKOV-3 cells. Ovarian cancer cells (SKOV-3) (1 million) were seeded in petri dishes and allowed to adhere overnight in DMEM media supplemented with 10% Fetal Bovine serum without antibiotic. In a separate tube, HE4 cDNA was complexed with lipofectamine (Invitrogen) for 1 min-2 hrs in Optimem media (Invitrogen). HE4 cDNA Lipofectamine complex dissolved in Optimem media were added to the cells. Lipofectamine and no drug were used as control. At different time points (4 hrs, 9 hrs and 24 hr), cells were collected and lysed using lysis buffer. […] Effect of HE4 activation on PIP2-PIP3 conversion was assessed by lipid kinase assay (Yano N. et al. Biochem. J. (2009) 423 (129-143).
A panel of stable HE4 overexpressing ovarian cancer SKOV-3 cell lines were developed by incorporation of pCMV6-HE4 vector. […] The cell viability was measured by MTS assay. Basal reactive oxygen species (ROS) production were measured by FACS analysis. In vitro Phosphoinositide-3-kinase (PI-3K) activity was measured by an immuno-precipitation PIP-3 assay. […]

DNA = experiment: ICP-MS analysis of Cisplatin binding to DNA in cells; assay type: cell-based, Human; details: HE4+ clones versus parental SKOV-3 cells
Protocol: A panel of stable HE4 overexpressing ovarian cancer SKOV-3 cell lines were developed by incorporation of pCMV6-HE4 vector. Inducible HE4 overexpression was achieved by pTet-Off vector (VP 16 vector). The cell viability was measured by MTS assay. Basal reactive oxygen species (ROS) production were measured by FACS analysis. In vitro Phosphoinositide-3-kinase (PI-3K) activity was measured by an immuno-precipitation PIP-3 assay. An Inductively Coupled Plasma-Mass spectrometry (IPC-MS) analysis was carried out to estimate Cisplatin binding to DNA in cells. Mitochondria, rough ER and myelin figures were examined by Electron microscopy (EM). The screening of in-house library of compounds was carried out by MTS assay.

| Structure (SMILES) | effect on viability of wild-type SKOV-3 cells (SKOV-3 cells) | response of HE4 overexpressing SKOV-3 clones to drug treatment (viability, words) [1] | response of HE4 overexpressing SKOV-3 clones to drug treatment (viability, words) ([1]; listed as Cisplatin) | sensitivity of clone HE4C1 to cisplatin ([1]; HE4C1, only at 80 μM) | fold chemoresistance against cisplatin ([1]; HE4C1 compared to parental and null vector cells) | fold lower response / loss of efficacy / resistance of HE4 overexpressing SKOV-3 clones compared to parental SKOV-3 ([1]; cell viability assay) [fold] | effect on HE4 levels in SKOV-3 (HE4 [2]) | animals that reached terminal tumor size (≥14 mm) [3] [%] | HE4 levels in cisplatin treated groups versus vehicle treated animals (HE4 [4]) | effect on PIP-3 synthesis (PI-3K) | Cisplatin binding to DNA (DNA) | response of HE4 overexpressing SKOV-3 clones to drug treatment (viability, words) ([1]; listed as Paclitaxel) |
| --- | --- | --- | --- | --- | --- | --- | --- | --- | --- | --- | --- | --- |
| N.N.[Cl][Pt][Cl] [cisplatin] | reduced the viability of wild-type SKOV-3 cells drastically | two clones did not respond; also recorded: significantly reduced response | significantly reduced response | minor sensitivity | 2-4 fold | 20 | suppressed HE4 levels | ~60 | did not differ significantly; also recorded: not significantly different | further enhancement of PIP-3 synthesis | reduced Cisplatin binding to DNA | – |
| CC(=O)O[C@H]1C(=O)[C@@]2(C)[C@H]([C@H](OC(=O)c3ccccc3)[C@]3(O)C[C@H](OC(=O)[C@H](O)[C@@H](NC(=O)c4ccccc4)c4ccccc4)C(C)=C1C3(C)C)[C@]1(OC(C)=O)CO[C@@H]1C[C@@H]2O [paclitaxel] | reduced the viability of wild-type SKOV-3 cells drastically | did not display a significantly altered viability | – | – | – | – | suppressed HE4 levels | – | – | – | – | significantly reduced response |
